Measured values: ChEMBL document CHEMBL1177653, “Synthesis and antiplasmodial activity of lycorine derivatives” (Bioorg Med Chem, 2010)

Tested on: Plasmodium falciparum
Experiment: Antiplasmodial activity against Plasmodium falciparum F32-Tanzania after 48 hrs

| IC50 [µM] | SMILES |
| --- | --- |
| 9.7 | C=Cc1cccc2c1N(CCCC)Cc1cc3c(cc1-2)OCO3 |
| 9.2 | CC(=O)Oc1cc2c3c(c1)c1cc4c(cc1c(=O)n3CC2)OCO4 |
| > 100 | CCc1cccc2c1N(C)Cc1cc3c(cc1-2)OCO3 |
| 47 | C=Cc1cccc2c1N(C)Cc1cc(OC(=O)CCCCCCCCCCC)c(OC(=O)CCCCCCCCCCC)cc1-2 |
| 0.8 | C=Cc1cccc2c1N(CCCC)Cc1cc(OC(C)=O)c(OC(C)=O)cc1-2 |
| 14.7 | O=C1C=C2CCN3Cc4cc5c(cc4[C@H]([C@@H]1O)[C@@H]23)OCO5 |
| > 100 | CC(=O)O[C@H]1[C@H]2c3cc4c(cc3C(=O)N3CCC(=C[C@@H]1OC(C)=O)[C@H]23)OCO4 |
| 8.4 | CC(=O)Oc1cc2c(cc1OC(C)=O)[C@@H]1[C@H](O)[C@@H](OC(C)=O)C=C3CCN(C2)[C@H]31 |
| 1.1 | C=Cc1cccc2c1N(C)Cc1cc(O)c(O)cc1-2 |
| > 100 | C=Cc1cccc2c3cc4c(cc3c(=O)n(CC)c12)OCO4 |
| > 100 | CC(=O)O[C@H]1[C@H]2c3cc4c(cc3C(=O)N3CCC(=C[C@@H]1O)[C@H]23)OCO4 |
| > 100 | C=Cc1cccc2c3cc4c(cc3c(=O)n(CCCC)c12)OCO4 |
| 7.4 | CCCCN1Cc2cc3c(cc2-c2cccc(CC)c21)OCO3 |
| > 100 | CC(=O)O[C@@H]1[C@@H](OC(C)=O)[C@H](O)[C@@]2(O)CCN3C(=O)c4cc5c(cc4[C@H]1[C@H]32)OCO5 |
| > 100 | C=Cc1cccc2c1N(CCCC)Cc1cc(O)c(O)cc1-2 |
| 11.3 | C=Cc1cccc2c1N(C)Cc1cc3c(cc1-2)OCO3 |
| 7.4 | C=Cc1cccc2c1N(CCCCCCCCCCC)Cc1cc3c(cc1-2)OCO3 |
| 12.4 | C=Cc1cccc2c1N(C)Cc1cc(OC)c(OC)cc1-2 |
| 86 | C=Cc1cccc2c1N(CC)Cc1cc3c(cc1-2)OCO3 |
| 34.8 | CC(=O)O[C@H]1[C@H]2c3cc4c(cc3CN3CC[C@@H](C[C@@H]1OC(C)=O)[C@H]23)OCO4 |
| 0.9 | CC(=O)O[C@H]1[C@H]2c3cc4c(cc3CN3CCC(=C[C@@H]1O)[C@H]23)OCO4 |
| 0.9 | C=Cc1cccc2c1N(C)Cc1cc(OC(C)=O)c(OC(C)=O)cc1-2 |
| 0.6 | CCC(C)C(=O)O[C@H]1[C@H]2c3cc4c(cc3CN3CCC(=C[C@@H]1OC(=O)C(C)CC)[C@H]23)OCO4 (some centres not stated) |
| 0.26 | CC(=O)O[C@H]1[C@H]2c3cc4c(cc3CN3CCC(=C[C@@H]1OC(C)=O)[C@H]23)OCO4 |
| 2.7 | CCC(=O)O[C@H]1[C@H]2c3cc4c(cc3CN3CCC(=C[C@@H]1OC(=O)CC)[C@H]23)OCO4 |
| > 100 | C=Cc1cccc2c3cc4c(cc3c(=O)n(C)c12)OCO4 |

| SMILES | IC50 [µM] |
| --- | --- |
| O[C@H]1[C@H]2c3cc4c(cc3CN3CCC(=C[C@@H]1O)[C@H]23)OCO4 [LYCORINE] | 0.13 |
